Experimental data taken from PMC7403104 (Antiviral Research, 2020).

Assays:
[1] = test system: six flaviviral polymerases (NS5 proteins of DENV3, TBEV, JEV, WNV, ZIKV, YFV); assay type: biochemical, flaviviruses
[2] = test system: flaviviral polymerases (DENV3, TBEV, JEV, WNV, ZIKV, YFV); assay type: biochemical, flaviviruses
[3] = molecular target: YFV polymerase (NS5 RdRp) (Yellow fever virus, UniProt P03314); test: biochemical
Sequence of YFV polymerase (NS5 RdRp) (P03314 2507-3411 limits assumed): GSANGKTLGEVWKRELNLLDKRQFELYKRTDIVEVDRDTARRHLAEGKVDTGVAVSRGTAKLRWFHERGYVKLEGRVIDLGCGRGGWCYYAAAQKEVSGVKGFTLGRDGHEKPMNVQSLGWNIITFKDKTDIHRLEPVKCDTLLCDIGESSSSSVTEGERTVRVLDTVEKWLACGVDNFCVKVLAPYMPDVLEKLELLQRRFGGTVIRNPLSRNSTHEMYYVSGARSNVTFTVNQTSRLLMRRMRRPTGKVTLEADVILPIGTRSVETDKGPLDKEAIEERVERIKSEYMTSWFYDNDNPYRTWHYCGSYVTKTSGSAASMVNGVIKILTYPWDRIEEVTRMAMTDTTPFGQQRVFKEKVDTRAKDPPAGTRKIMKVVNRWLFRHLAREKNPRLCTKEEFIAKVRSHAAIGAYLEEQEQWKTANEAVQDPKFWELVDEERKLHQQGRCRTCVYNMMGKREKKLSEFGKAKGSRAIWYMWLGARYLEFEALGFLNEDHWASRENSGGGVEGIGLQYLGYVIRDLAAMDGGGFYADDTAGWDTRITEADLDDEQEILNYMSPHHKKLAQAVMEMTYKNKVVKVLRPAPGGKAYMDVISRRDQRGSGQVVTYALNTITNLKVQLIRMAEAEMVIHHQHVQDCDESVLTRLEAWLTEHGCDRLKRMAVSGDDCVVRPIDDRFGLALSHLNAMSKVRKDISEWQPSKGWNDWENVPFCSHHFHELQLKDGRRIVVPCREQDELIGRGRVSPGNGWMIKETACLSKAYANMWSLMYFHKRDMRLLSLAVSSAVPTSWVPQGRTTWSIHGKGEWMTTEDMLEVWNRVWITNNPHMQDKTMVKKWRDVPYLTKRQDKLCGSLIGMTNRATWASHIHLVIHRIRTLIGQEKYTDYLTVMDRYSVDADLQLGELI

## CCC(CC)COC(=O)[C@H](C)N[P@](=O)(OC[C@H]1O[C@@](C#N)(c2ccc3c(N)ncnn23)[C@H](O)[C@@H]1O)Oc1ccccc1 [remdesivir, Remdesivir]
[1]
  incorporation into newly synthesized RNA chain / chain termination: able to incorporate several (five) remdesivir molecules into the newly synthesized RNA chain and finish the primer elongation reaction
[2]
  IC50s range in words, flaviviral RdRps: hundreds of nanomolar to single digit micromolar
[2]; read-out: IC50 range, all the tested flaviviral polymerases
  IC50: 0.2 to 2.2 µM
[3]
  IC50: 0.26 ± 0.03 µM
